Patent publication US20220354949A1, “NOVEL COMPOUNDS” (XENIOPRO GmbH, priority 2018, published 2022)

Legend:
Type in all cases: cell-based
[1] = system: Notch signaling (human Notch1 receptor, hNotch1ΔE, CSL luciferase reporter in HeLa cells); test: Notch reporter assay (dual luciferase, HeLa cells transfected with hNotch1ΔE); details: compounds and controls at 10 μM
Excerpt: The activation level of Notch signaling can be quantified in vitro reliably by measuring the expression levels of Notch specific target genes. This can be accomplished by the quantification of corresponding mRNA or protein of a particular Notch target gene. Alternatively, cells can be genetically modified to carry a luciferase gene as an artificial Notch target gene, which is expressed in dependence of Notch activity. In this setting, Notch signaling levels can be quantified by measuring the luciferase-derived bioluminescence values.
An according Notch-reporter assay, i.e. a luciferase-based luminescence readout, was used here to quantify the ability of the claimed compounds to augment Notch signaling in a cellular system. […] After 24 hours of transfection, the transfected cells were carefully detached from the dish using 0.5 mM EDTA in PBS and seeded into 96-well plates suitable for luminescence readouts (CORNING, #3610) at 10′000 cells per well. […] Directly after the lysis, first the Firefly and then the Renilla luciferase values were measured consecutively from the same well with a luminescence reader immediately after applying 15 μL per well each of the corresponding enzyme substrates needed to create the luminescence signals (Promega, Dual-Luciferase® Reporter Assay System, #E1910). […]

[2] = system: HH cells (human cutaneous T-cell lymphoma cells); test: Proliferation assay (alamarBlue) with HH cells; details: 20 μM, relative to DMSO basis level 1.0, Table 60 (compounds disclosed in PCT/EP2018/054686)
Excerpt: (§1) The antiproliferative activities of compounds falling under formula (Ia), (Ib) and (Ic), respectively, were investigated on cells or cell lines originating from a disorder of the haematopoietic system, including the myeloid cell compartment and the lymphoid cell compartment (T-cells and B-cells), the neuroendocrine system, the cervix, the breast, the ovaries, the lung, the gastrointestinal tract, and the mucosal epithelium, as well as from the skin epithelium and from the muscle. To this end, HL-60 cells, NB-4 cells, HH cells, RPMI-8402 cells, TANOUE cells, TT cells, HeLa cells, MDA-MB-231 cells, FU-OV-1 cells, LOU-NH91 cells, 23132/87 cells, CAL-27 cells, BHY cells, SCC-25 cells, A-431 cells, human primary epidermal keratinocytes (HPEK), and C2C12 cells were seeded into 96-well plates suitable for fluorescence assays (CORNING #3598) at following initial cell numbers: 1000 cells per well for HL-60; 1000 cells per well for NB-4; 5000 cells per well for HH; 5000 cells per well for RPMI-8402; 1500 cells per well for TANOUE; 9000 cells per well for TT; 2000 cells per well for HeLa; 3000 cells per well for MDA-MB-231; 3000 cells per well for FU-OV-1; 4000 cells per well for LOU-NH91; 2000 cells per well for 23132/87; 2000 cells per well for CAL-27; 1500 cells per well for BHY; 1500 cells per well for SCC-25; 700 cells per well for A-431; 1000 cells per well for HPEK; 500 cells per well for C2C12. The cells were treated with compounds at indicated final concentrations (diluted from the 1000× stock-solutions in DMSO to a final DMSO concentration of 0.1% v/v in H2O (Water For Injection, WFI, Fisherscientific #10378939)) or with the empty carrier DMSO at 0.1% v/v as control for 5 days. At day 5 after starting the treatments the cells were subjected to the alamarBlue® Proliferation Assay (Bio-Rad Serotec GmbH, BUF012B) according to the protocol of the manufacturer. The readout was taken with a multi-well plate-reader in the fluorescence mode with applying a filter for excitation at 560 nm (band width 10 nm) and for emission at 590 nm (band width 10 nm). Control treatments for growth inhibition with commercial compounds such as Methotrexate (MTREX) and Resveratrol (RES) were included on every plate. Some of the test compounds of the present invention were obtained and applied as their salts. According cases are indicated in the column “Specification” in Table 55 to Table 92 and by their sum formula in Table 93.
(§2) The assays were performed in duplicate or more replicates of independent single experiments each containing a six-fold replicate for every condition. For every individual plate, the measured fluorescence intensity values of the conditions with compound treatment were normalized against the corresponding equally weighted arithmetic mean of the fluorescence intensity values of the six DMSO treated control wells in order to obtain the relative values to a baseline level of 1.0.
(§3) Two independent outlier analyses were performed according to the methods by Peirce and Chauvenet (Ross, Journal of Engineering Technology 2003, 1-12). Outliers confirmed by at least one of the methods were excluded from the calculations but not more than one value out of six per compound within a single experiment. The weighted arithmetic mean (here abbreviated as AVEw) for each compound was calculated from the normalized values over all independent replicates of the single experiments comprising the six replicates each. The corresponding standard deviation for the weighted arithmetic mean was calculated according to the method described by Bronstein et al. (Bronstein, Semendjajew, Musiol, Müihlig, Taschenbuch der Mathematik, 5th edition 2001 (German), publisher: Verlag Harri Deutsch, Frankfurt am Main and Thun) and was combined with the Gauß' error propagation associated with the performed calculation for the normalization. The resulting standard deviation is herein referred to as “combined standard deviation”. […]

[3] = system: TANOUE cells (human B cell leukemia cells); test: Proliferation assay (alamarBlue) with TANOUE cells; details: Homo sapiens, B-cell, compound at 20 μM, Table 63 (novel compounds), read-out: Activity Range: weighted arithmetic mean (AVEw) of normalized fluorescence intensity relative to DMSO basis level 1.0
Excerpt: as §1, §2, §3

[4] = system: MDA-MB-231 cells (human breast carcinoma cells); test: Proliferation assay (alamarBlue) with MDA-MB-231 cells; details: Homo sapiens, compound at 20 μM, Table 69 (novel compounds), read-out: Activity Range: weighted arithmetic mean (AVEw) of normalized fluorescence intensity relative to DMSO basis level 1.0
Excerpt: as §1, §2, §3

Question: Which “Activity Range: weighted arithmetic mean (AVEw) of double-normalized Notch-reporter luminescence, relative to DMSO basis level of 1.0” value [1] does the source give for `C[C@H](NC(=O)Cc1cc(F)cc(F)c1)C(=O)N[C@H](C(=O)OC(C)(C)C)c1ccccc1` [DAPT] here?
Answer: 0.1 ± 0.0

Question: For `NS(=O)(=O)C#Cc1ccccc1` [PES], which “Activity Range: weighted arithmetic mean (AVEw) of normalized fluorescence intensity, proliferation assay with HH cells” value [2] is on record?
Answer: 0.6 ± 0.1

Question: How did the activity at 20 µM [3] turn out when `CN(C)C(c1ccc(Oc2ccc(C34CC5CC(CC(C5)C3)C4)cc2)cc1)C(F)(F)F` (stereo not shown) [XPW-0042, 1-(4-(4-((3r,5r,7r)-adamantan-1-yl)phenoxy)phenyl)-2,2,2-trifluoro-N,N-dimethylethan-1-amine] was run?
Answer: 80 to 90%

Question: And the activity at 20 µM [4]?
Answer: 80 to 90%

Question: With `CN(O)C(c1ccc(Oc2ccc(C34CC5CC(CC(C5)C3)C4)cc2)cc1)C(F)(F)F` (stereo not shown) [XPW-0182, N-(1-(4-(4-((3r,5r,7r)-adamantan-1-yl)phenoxy)phenyl)-2,2,2-trifluoroethyl)-N-methyl hydroxylamine] as the compound, how does the activity at 20 µM [3] read?
Answer: 40 to 60%

Question: And the activity at 20 µM [4]?
Answer: 40 to 60%

Question: `CN(C)C(C#N)c1ccc(Oc2ccc(C3CCCCC3)cc2)cc1` (stereo not shown) [XPW-0314, 2-(4-(4-cyclohexylphenoxy)phenyl)-2-(dimethylamino)acetonitrile] was tested. Which activity at 20 µM [3] did it give?
Answer: 40 to 60%

Question: And the “Activity Range: weighted arithmetic mean (AVEw) of double-normalized Notch-reporter luminescence, relative to DMSO basis level of 1.0” value [1]?
Answer: 2.0 ≤ AVEw

Question: How did the activity at 20 µM [3] turn out when `COCCc1ccc(Oc2ccc(C(=O)N(C)O)cc2)cc1` [XPW-0675, N-hydroxy-4-(4-(2-methoxyethyl)phenoxy)-N-methylbenzamide] was run?
Answer: 40 to 60%

Question: What about the activity at 20 µM [4] of the same compound?
Answer: 40 to 60%

Question: Which results are given for `N#CN=C(N)c1ccc(Oc2ccc(C3CCCCC3)cc2)nc1` [XPW-0832, N′-cyano-6-(4-cyclohexylphenoxy)nicotinimidamide]?
Answer: activity at 20 µM [3]: 70 to 80%; activity at 20 µM [4]: 70 to 80%

Question: Which activity at 20 µM [3] does the source give for `CC(C)(C)[S+]([O-])NC(c1ccc(Oc2ccc(C34CC5CC(CC(C5)C3)C4)cc2)cc1)C(F)(F)F` (stereo not shown) [XPW-0902, N-(1-(4-(4-((3r,5r,7r)-adamantan-1-yl)phenoxy)phenyl)-2,2,2-trifluoroethyl)-2-methylpropane-2-sulfinamide] here?
Answer: 0 to 20%

Question: And the activity at 20 µM [4]?
Answer: 0 to 20%

Question: `O=C(c1ccc(Oc2ccc(C3CCCCC3)cc2)nc1)N1CCOCC1` [XPW-2890, (6-(4-cyclohexylphenoxy)pyridin-3-yl)(morpholino)methanone] was tested. Which activity at 20 µM [3] did it give?
Answer: 70 to 80%

Question: And the activity at 20 µM [4]?
Answer: 40 to 60%

Question: How did the activity at 20 µM [3] turn out when `NC1(c2ccc(Oc3ccc(C45CC6CC(CC(C6)C4)C5)cc3)nc2)COC1` [XPW-3052] was run?
Answer: 70 to 80%

Question: And the activity at 20 µM [4]?
Answer: 60 to 70%

Question: For `CN(C(c1ccc(Oc2ccc(C34CC5CC(CC(C5)C3)C4)cc2)cc1)C(F)(F)F)[S+]([O-])C(C)(C)C` (stereo not shown) [XPW-4642, N-(1-(4-(4-((3r,5r,7r)-adamantan-1-yl)phenoxy)phenyl)-2,2,2-trifluoroethyl)-N,2-dimethylpropane-2-sulfinamide], which activity at 20 µM [4] is on record?
Answer: 60 to 70%
